Measured values as given in the supplement of paper PMC10307832.

Assays:
Assay in all cases: relative viability (nuclei count vs DMSO), 5 days (fraction); higher = more cells survive
AZD6482 + Vorinostat = compound: Cc1cc([C@@H](C)Nc2ccccc2C(=O)O)c2nc(N3CCOCC3)cc(=O)n2c1 [AZD6482] + O=C(CCCCCCC(=O)Nc1ccccc1)NO [Vorinostat] (partner 1 µM)
Procedure, shortened: (§1)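 Relative viability was taken as the ratio of nuclei in treated wells to nuclei in vehicle wells. Lung cancer cell lines in 1536-well plates received compounds by pin tool one day after seeding, either one drug alone or a fixed anchor-drug dose plus five library-drug doses (not always all listed) in √10 steps. Nuclei were counted on 4× images after 5 days of treatment, and values are medians of duplicate plates.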

[1] = compound: COc1cc2nc(N3CCCN(C)CC3)nc(NC3CCN(Cc4ccccc4)CC3)c2cc1OC + Cc1nc(Nc2ncc(C(=O)Nc3c(C)cccc3Cl)s2)cc(N2CCN(CCO)CC2)n1 [Dasatinib] (partner 0.075 µM)
Procedure, shortened: as §1

AZD6482 + OSI-027 = compound: Cc1cc([C@@H](C)Nc2ccccc2C(=O)O)c2nc(N3CCOCC3)cc(=O)n2c1 [AZD6482] + COc1cccc2cc(-c3nc([C@H]4CC[C@H](C(=O)O)CC4)n4ncnc(N)c34)[nH]c12 [OSI-027] (partner 0.5 µM)
Procedure, shortened: as §1

AZD6482 + Alpelisib = compound: Cc1cc([C@@H](C)Nc2ccccc2C(=O)O)c2nc(N3CCOCC3)cc(=O)n2c1 [AZD6482] + Cc1nc(NC(=O)N2CCC[C@H]2C(N)=O)sc1-c1ccnc(C(C)(C)C(F)(F)F)c1 [Alpelisib] (partner 2 µM)
Procedure, shortened: as §1

| Cell Line | relative viability (AZD6482 + Vorinostat; first compound 0.08 µM) | relative viability (AZD6482 + Vorinostat; first compound 0.253 µM) | relative viability (AZD6482 + Vorinostat; first compound 0.8 µM) | relative viability (AZD6482 + Vorinostat; first compound 2.53 µM) | relative viability (AZD6482 + Vorinostat; first compound 8 µM) | relative viability ([1]; first compound 0.2 µM) | relative viability ([1]; first compound 0.6325 µM) | relative viability ([1]; first compound 2 µM) | relative viability ([1]; first compound 6.325 µM) | relative viability (AZD6482 + OSI-027; first compound 0.08 µM) | relative viability (AZD6482 + OSI-027; first compound 0.253 µM) | relative viability (AZD6482 + OSI-027; first compound 0.8 µM) | relative viability (AZD6482 + OSI-027; first compound 2.53 µM) | relative viability (AZD6482 + OSI-027; first compound 8 µM) | relative viability (AZD6482 + Alpelisib; first compound 0.08 µM) | relative viability (AZD6482 + Alpelisib; first compound 0.253 µM) | relative viability (AZD6482 + Alpelisib; first compound 0.8 µM) | relative viability (AZD6482 + Alpelisib; first compound 2.53 µM) | relative viability (AZD6482 + Alpelisib; first compound 8 µM) |
| --- | --- | --- | --- | --- | --- | --- | --- | --- | --- | --- | --- | --- | --- | --- | --- | --- | --- | --- | --- |
| NCI-H1650 | 0.512 | 0.629 | 0.805 | 0.437 | 0.632 | 0.28 | 0.367 | 0.327 | 0.233 | 0.536 | 0.636 | 0.569 | 0.347 | 0.447 | – | – | – | – | – |
| NCI-H1299 | – | – | – | – | – | – | – | – | – | – | – | – | – | – | 1.14 | 1.17 | 1.27 | 1.04 | 1.28 |
| EBC-1 | – | – | – | – | – | – | – | – | – | – | – | – | – | – | 0.32 | 0.346 | 0.27 | 0.177 | 0.299 |
| NCI-H1648 | 0.545 | 0.422 | 0.552 | – | 0.402 | – | – | – | – | 0.297 | 0.268 | 0.245 | 0.228 | 0.276 | – | – | – | – | – |
| NCI-H1792 | – | – | – | – | – | 0.89 | 0.781 | 0.824 | 0.816 | 0.662 | 0.677 | 0.73 | 0.511 | 0.406 | 0.516 | 0.518 | 0.67 | 0.393 | 0.359 |
| ChaGo-K-1 | 0.752 | 0.7 | 0.744 | 0.708 | 0.773 | 0.514 | 0.617 | 0.592 | 0.584 | 0.634 | 0.323 | 0.539 | 0.477 | 0.49 | – | – | – | – | – |
